# Data as given in publication PMC9427784, “Structural bases for aspartate recognition and polymerization efficiency of cyanobacterial cyanophycin synthetase” (Nature Communications, 2022).
# Legend:
# TeCphA1 [1] = target: T1, TeCphA1 (Trichodesmium erythraeum, UniProt Q113V7); test: cryo-EM structure, […] Å; assay type: binding; conditions: 4 mM ATPγS, 20 mM MgCl2, pH 8.2; G and M domain sites; also in substrate-bound 7WAE (C1) and 7WAF (C2)
# T1 construct: gene Tery_1965; full-length, C-terminal His6 tag (pET-22b(+), NdeI/XhoI), E. coli BL21(DE3); D2 homotetramer; N (1-161), G (162-487), M (488-876) domains
# TeCphA1 [2] = target: T1, TeCphA1; test: cryo-EM structure, […] Å (C1); assay type: binding; conditions: complex with ATPγS, (β-Asp-Arg)4, Mg2+; 100 mM L-aspartate, pH 8.2; G domain site, seen in chain D
# TeCphA1 [3] = target: T1, TeCphA1; test: phosphate release, molybdenum blue colorimetry; Michaelis-Menten fit; assay type: biochemical; conditions: one substrate varied; L-aspartate 5 mM, L-arginine 0.5 mM, (β-Asp-Arg)4 2 mM; 20 mM MgCl2, pH 8.2, 30°C; two ATP sites (G and M domains)
# [4] = target: cyanophycin synthetase (CphA1) from Trichodesmium erythraeum IMS101 (Trichodesmium erythraeum IMS101); test: cryo-EM structure; single-particle cryo-EM of TeCphA1 in the apo, ATPγS-bound and substrate-bound states; 2-12 μM TeCphA1, Tris-HCl pH 8.0-8.2
# purified protein = substrate: N[C@@H](CC(=O)O)C(=O)O; test: purified protein; conditions: one substrate varied, other substrates at ATP 4 mM, L-arginine 0.5 mM, (β-Asp-Arg)4 2 mM, 20 mM MgCl2, 20 mM KCl, pH 8.2, 30°C, positively cooperative, Hill fit
molecule,measurement,setting,value
Nc1ncnc2c1ncn2[C@@H]1O[C@H](COP(=O)(O)OP(=O)(O)OP(O)(O)=S)[C@@H](O)[C@H]1O [ATPγS],"cryo-EM structure, 2.96 Å",TeCphA1 [1],7WAD for TeCphA1 bound with ATPγS
N[C@@H](CC(=O)O)C(=O)O [L-aspartate],"cryo-EM structure, 2.64 Å (C1)",TeCphA1 [2],the substrate aspartate was observed only in one protomer (chain D)
Nc1ncnc2c1ncn2[C@@H]1O[C@H](COP(=O)(O)OP(=O)(O)OP(=O)(O)O)[C@@H](O)[C@H]1O [ATP],apparent Km,TeCphA1 [3],we have determined the apparent Km value for ATP
cyanophycin synthetase (CphA1) from Trichodesmium erythraeum IMS101 (enzyme),stoichiometry N,[4],4
TeCphA1 (Trichodesmium erythraeum IMS101) (protein) MKILKLQTLRGPNYWSIHRHKLVVMRLDLEDLYEKYTSDIPGFYKGLTEVLPSLVEHLCSPGVKGGFLTRVEKGTLIGHVIEHVAIELQELAGMPVGFGRTRETSTTGVFQVVIEYENEQAGRYAARAAVRLCQSIVDTGTYPATELQQDLEDLKELKNQASLGPSTEAIVKEAEARGIPWTQLGARFMIQFGYGVNQKKIQATLSNQTGILGVELACDKEGTKRILKDAGVPVPRGTVARYFDELQDAIEYVGGYPIVIKPLDGNHGRGITIDVKNWQEAEEAYDLARKASKTKTVIVERYYTGKDHRVLVVNGKVVAVAERVPAHVVGNGKSTIAELIEETNRDPQRGDGHDNILTRITVDKSALDILGKQGYSIDSIPLKGKKCFLRATANLSTGGIAVDRTDEIHPENVWLLSRVAKIIGLDIAGIDVVTEDISQPLREVEGVIVEVNAAPGFRMHVAPSRGLARNVAGAVMDMLFPGSKNGRIPILSVTGTNGKTTTTRLLAHIIKQTGKVVGYTTTDGTYIGEYLAETGDNTGPQSAHLILSDPTVEVAVLETARGGILRSGLGFSSCEVGIVLNVTADHLGIGDIDTIEQLAKLKSVVAESVMPKGYAVLNAEDPLVAAMADRVKGQVAYFSMDPNNELLLRHTEAGGLAAIYENGYISILKGDWTLRIEKAVNVPITMAGKAPFMIANALAACLAVFTQGVKIEHIRKGLSTFVASVDQTPGRMNMFNMGSYHALVDYAHNPASYEALGGFVRNWPGKRIGVVGGPGDRRDEDFVSLGELAADIFDEIIIKEDDDTRGRPRGNAAELICQGVKQFLNGIKNSESKATYESILDETAAINTALDRAPIDGLVVILPESVNRAISLIEGRHVIQDIELLQDSQREPKDQEVLKSSI,K0.5,purified protein,18.0 ± 1.1 mM
